In patent US10759816B2, “Heterocyclic compounds as RSV inhibitors” (Enanta Pharmaceuticals, Inc., priority 2016, dated 2020):

System: genotype A, "Long" strain RSV
Assay: RSV-A in vitro cytoprotection assay in HEp-2 cells (ATPlite readout of cell viability)
Format: cell-based, Human respiratory syncytial virus
Settings: human respiratory syncytial virus, HEp-2, HEp-2 cells, genotype A “Long” strain RSV, cytoprotection; read-out: Human RSV-A (“Long” strain) EC50
Procedure, shortened: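 HEp-2 cells (8,000/well) given 2-fold compound dilutions in duplicate, then infected with RSV-A Long strain stock; viability read by ATPlite luminescence after 4 days. EC50 derived from cytoprotection; cytotoxicity measured on parallel uninfected plate.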

Structure (SMILES) | EC50 [nM]
Cc1cccc(F)c1NC(=O)c1cc2c(s1)-c1ccccc1N(C(=O)c1cccc(N3CCCS(=O)(=O)c4ccccc43)n1)CC2 [Example 406] | 400 to 800
COc1ccc(=O)n(-c2cccc(C(=O)N3CCc4cc(C(=O)Nc5c(C)cccc5F)sc4-c4ccccc43)n2)c1 [Example 407] | > 800
COc1ccc(Oc2cccc(C(=O)N3CCc4cc(C(=O)Nc5c(C)cccc5F)sc4-c4ccccc43)n2)nc1 [Example 408] | > 800
COc1cccc(Nc2cccc(C(=O)N3CCc4cc(C(=O)NC5CC5)sc4-c4ccccc43)n2)n1 [Example 409] | > 800
COc1ncccc1Nc1cccc(C(=O)N2CCc3cc(C(=O)NC4CC4)sc3-c3ccccc32)n1 [Example 410] | > 800
O=C(NC1CC1)c1cc2c(s1)-c1ccccc1N(C(=O)c1cccc(Nc3cccc4c3C(=O)NC4)n1)CC2 [Example 411] | > 800
CN1Cc2cccc(Nc3cccc(C(=O)N4CCc5cc(C(=O)NC6CC6)sc5-c5ccccc54)n3)c2C1=O [Example 412] | > 800
Nc1cccc2c1C(=O)N(c1cccc(C(=O)N3CCc4cc(C(=O)NC5CC5)sc4-c4ccccc43)n1)C2 [Example 413] | > 800
O=C(NC1CC1)c1cc2c(s1)-c1ccccc1N(C(=O)c1cccc(N3CCOc4ccccc4C3=O)n1)CC2 [Example 414] | > 800
COc1ccn(-c2cccc(C(=O)N3CCc4cc(C(=O)Nc5c(C)cccc5F)sc4-c4ccccc43)n2)c(=O)c1 [Example 415] | > 800
Cc1cccc(F)c1NC(=O)c1cc2c(s1)-c1ccccc1N(C(=O)c1cccc(N3CCOC4(CCCC4)C3)n1)CC2 [Example 416] | < 400
Cc1cccc(F)c1NC(=O)c1cc2c(s1)-c1ccccc1N(C(=O)c1cccc(N3CCOc4ccc(Cl)cc4C3)n1)CC2 [Example 417] | < 400
Cc1cccc(F)c1NC(=O)c1cc2c(s1)-c1ccccc1N(C(=O)c1cccc(N3CCS(=O)(=O)CC3)n1)CC2 [Example 418] | < 400
Cc1cccc(F)c1NC(=O)c1cc2c(s1)-c1ccccc1N(C(=O)c1cccc(N3CCS(=O)(=O)c4ccccc4C3)n1)CC2 [Example 419] | < 400
COCC(Nc1cccc(C(=O)N2CCc3cc(C(=O)Nc4c(C)cccc4F)sc3-c3ccccc32)n1)C1CC1 (stereo not drawn) [Example 420] | 400 to 800
COCC(C)(C)CNc1cccc(C(=O)N2CCc3cc(C(=O)Nc4c(C)cccc4F)sc3-c3ccccc32)n1 [Example 421] | < 400
Cc1cccc(F)c1NC(=O)c1cc2c(s1)-c1ccccc1N(C(=O)c1cccc(NCCS(C)(=O)=O)n1)CC2 [Example 422] | > 800
COCCN(c1cccc(C(=O)N2CCc3cc(C(=O)Nc4c(C)cccc4F)sc3-c3ccccc32)n1)S(C)(=O)=O [Example 423] | > 800
Cc1cccc(F)c1NC(=O)c1cc2c(s1)-c1ccccc1N(C(=O)c1cccc(N3C(=O)OC[C@H]3c3ccccc3)n1)CC2 [Example 424] | > 800
Cc1cccc(F)c1NC(=O)c1cc2c(s1)-c1ccccc1N(C(=O)c1cccc(N3C(=O)OC[C@@H]3c3ccccc3)n1)CC2 [Example 425] | < 400
Cc1cccc(F)c1NC(=O)c1cc2c(s1)-c1ccccc1N(C(=O)c1cccc(N3CC4(COC4)C3)n1)CC2 [Example 426] | > 800

Structure (SMILES) | EC50 [nM]
Cc1cccc(F)c1NC(=O)c1cc2c(s1)-c1ccccc1N(C(=O)c1cccc(N3CCC4(COC4)C3)n1)CC2 [Example 427] | > 800
Cc1cccc(F)c1NC(=O)c1cc2c(s1)-c1ccccc1N(C(=O)c1cccc(N3CC4(C3)CS(=O)(=O)C4)n1)CC2 [Example 428] | > 800
Cc1cccc(F)c1NC(=O)c1cc2c(s1)-c1ccccc1N(C(=O)c1cccc(N3C[C@H]4C[C@@H]3CO4)n1)CC2 [Example 429] | < 400
Cc1cccc(F)c1NC(=O)c1cc2c(s1)-c1ccccc1N(C(=O)c1cccc(N3C[C@@H]4C[C@H]3CO4)n1)CC2 [Example 430] | < 400
Cc1cccc(F)c1NC(=O)c1cc2c(s1)-c1ccccc1N(C(=O)c1cccc(N3CCS(=O)(=O)C(C)(C)C3)n1)CC2 [Example 431] | < 400
Cc1cccc(F)c1NC(=O)c1cc2c(s1)-c1ccccc1N(C(=O)c1cccc(N3CCS(=O)(=O)CC3C)n1)CC2 (stereo not drawn) [Example 432] | < 400
Cc1cccc(F)c1NC(=O)c1cc2c(s1)-c1ccccc1N(C(=O)c1cccc(N3CCS(=O)(=O)c4ccccc4[C@H]3C)n1)CC2 [Example 433] | > 800
Cc1cccc(F)c1NC(=O)c1cc2c(s1)-c1ccccc1N(C(=O)c1cccc(N3CCS(=O)(=O)c4ccccc4[C@@H]3C)n1)CC2 [Example 434] | > 800
Cc1cccc(F)c1NC(=O)c1cc2c(s1)-c1ccccc1N(C(=O)c1cccc(N3CCS(=O)(=O)c4c(F)cccc4C3)n1)CC2 [Example 435] | < 400
Cc1cccc(F)c1NC(=O)c1cc2c(s1)-c1ccccc1N(C(=O)c1cccc(N3CCS(=O)(=O)c4ccc(F)cc4C3)n1)CC2 [Example 436] | < 400
COc1ccc2c(c1)S(=O)(=O)CCN(c1cccc(C(=O)N3CCc4cc(C(=O)Nc5c(C)cccc5F)sc4-c4ccccc43)n1)C2 [Example 437] | < 400
Cc1cccc(F)c1NC(=O)c1cc2c(s1)-c1ccccc1N(C(=O)c1cccc(NC3CCS(=O)(=O)C3)n1)CC2 (stereo not drawn) [Example 438] | < 400
Cc1cccc(F)c1NC(=O)c1cc2c(s1)-c1ccccc1N(C(=O)c1cccc(N(C)C3CCS(=O)(=O)C3)n1)CC2 (stereo not drawn) [Example 439] | > 800
Cc1cccc(F)c1NC(=O)c1cc2c(s1)-c1ccccc1N(C(=O)c1cccc(NC3CS(=O)(=O)C3)n1)CC2 [Example 440] | < 400
Cc1cccc(F)c1NC(=O)c1cc2c(s1)-c1ccccc1N(C(=O)c1cccc(N3CC(S(C)(=O)=O)C3)n1)CC2 [Example 441] | > 800
Cc1cccc(F)c1NC(=O)c1cc2c(s1)-c1ccccc1N(C(=O)c1cccc(N3CC4CC5CC(C4)CC3C5)n1)CC2 [Example 442] | > 800
Cc1cccc(F)c1NC(=O)c1cc2c(s1)-c1ccccc1N(C(=O)c1cccc(N3CC4CCC(C4)C3)n1)CC2 [Example 443] | > 800
Cc1cccc(F)c1NC(=O)c1cc2c(s1)-c1ccccc1N(C(=O)c1cccc(N3CCCC(C)(O)CC3)n1)CC2 (stereo not drawn) [Example 444] | < 400
Cc1cccc(F)c1NC(=O)c1cc2c(s1)-c1ccccc1N(C(=O)c1cccc(N3CCCCC(F)(F)C3)n1)CC2 [Example 445] | < 400
Cc1cccc(F)c1NC(=O)c1cc2c(s1)-c1ccccc1N(C(=O)c1cccc(N3CCNS(=O)(=O)CC3)n1)CC2 [Example 446] | < 400
Cc1cccc(F)c1NC(=O)c1cc2c(s1)-c1ccccc1N(C(=O)c1cccc(N3CCN(C)S(=O)(=O)CC3)n1)CC2 [Example 447] | < 400

Structure (SMILES) | EC50 [nM]
Cc1cccc(F)c1NC(=O)c1cc2c(s1)-c1ccccc1N(C(=O)c1cccc(N3CCN(C4CC4)S(=O)(=O)CC3)n1)CC2 [Example 448] | < 400
Cc1cccc(F)c1NC(=O)c1cc2c(s1)-c1ccccc1N(C(=O)c1cccc(N3C[C@@H]4CC(F)(F)C[C@@H]4C3)n1)CC2 [Example 449] | > 800
Cc1cccc(F)c1NC(=O)c1cc2c(s1)-c1ccccc1N(C(=O)c1cccc(-n3c(=O)[nH]c4ccccc43)n1)CC2 [Example 450] | < 400
Cc1cccc(F)c1NC(=O)c1cc2c(s1)-c1ccccc1N(C(=O)c1cccc(N3C(=O)Cc4ccccc43)n1)CC2 [Example 451] | > 800
Cc1cccc(F)c1NC(=O)c1cc2c(s1)-c1ccccc1N(C(=O)c1cccc(NC3CCOCC3)n1)CC2 [Example 453] | < 400
Cc1cccc(F)c1NC(=O)c1cc2c(s1)-c1ccccc1N(C(=O)c1cccc(NC3CCS(=O)(=O)CC3)n1)CC2 [Example 454] | > 800
Cc1cccc(F)c1NC(=O)c1cc2c(s1)-c1ccccc1N(C(=O)c1cccc(N(C)C3CCS(=O)(=O)CC3)n1)CC2 [Example 455] | > 800
Cc1cccc(F)c1NC(=O)c1cc2c(s1)-c1ccccc1N(C(=O)c1cccc(N[C@@H]3CCOC3)n1)CC2 [Example 456] | < 400
Cc1cccc(F)c1NC(=O)c1cc2c(s1)-c1ccccc1N(C(=O)c1cccc(N[C@H]3CCOC3)n1)CC2 [Example 457] | < 400
Cc1cccc(F)c1NC(=O)c1cc2c(s1)-c1ccccc1N(C(=O)c1cccc(NC[C@@H]3CCCO3)n1)CC2 [Example 459] | < 400
Cc1cccc(F)c1NC(=O)c1cc2c(s1)-c1ccccc1N(C(=O)c1cccc(NC[C@H]3CCCO3)n1)CC2 [Example 460] | < 400
Cc1cccc(F)c1NC(=O)c1cc2c(s1)-c1ccccc1N(C(=O)c1cccc(N(C)CC3CCCO3)n1)CC2 (stereo not drawn) [Example 461] | < 400
Cc1cccc(F)c1NC(=O)c1cc2c(s1)-c1ccccc1N(C(=O)c1cccc(NCC3CCCS3(=O)=O)n1)CC2 (stereo not drawn) [Example 462] | < 400
Cc1cccc(F)c1NC(=O)c1cc2c(s1)-c1ccccc1N(C(=O)c1cccc(N(CCS(C)(=O)=O)C3CC3)n1)CC2 [Example 463] | 400 to 800
Cc1cccc(F)c1NC(=O)c1cc2c(s1)-c1ccccc1N(C(=O)c1cccc(NC(C)CS(C)(=O)=O)n1)CC2 (stereo not drawn) [Example 464] | > 800
Cc1cccc(F)c1NC(=O)c1cc2c(s1)-c1ccccc1N(C(=O)c1cccc(NCC(C)(C)S(C)(=O)=O)n1)CC2 [Example 465] | 400 to 800
Cc1cccc(F)c1NC(=O)c1cc2c(s1)-c1ccccc1N(C(=O)c1cccc(NCC3(S(C)(=O)=O)CC3)n1)CC2 [Example 466] | < 400
Cc1cccc(F)c1NC(=O)c1cc2c(s1)-c1ccccc1N(C(=O)c1cccc(NCC3(CS(C)(=O)=O)CC3)n1)CC2 [Example 467] | 400 to 800
COC(C)(C)CN(C)c1cccc(C(=O)N2CCc3cc(C(=O)Nc4c(C)cccc4F)sc3-c3ccccc32)n1 [Example 470] | < 400
COCCN(c1cccc(C(=O)N2CCc3cc(C(=O)Nc4c(C)cccc4F)sc3-c3ccccc32)n1)C1CC1 [Example 471] | < 400
Cc1cccc(F)c1NC(=O)c1cc2c(s1)-c1ccccc1N(C(=O)c1cccc(N3CC4(CCS4(=O)=O)C3)n1)CC2 [Example 472] | > 800
